Assay results from US20060229255A1, “Identification of n-alkylglycine trimers for induction of apoptosis” (priority 2003, published 2006).

Tests used:
Assay type in all cases: cell-based, human
[1] = test system: pRb, p130, p107, p27kip1, p21Cip1; assay: Western blot of G1 checkpoint proteins in synchronized T98 g cells
Protocol: (§1) Western blotting. Floating and adherent cells were harvested and pellets were resuspended in RIPA buffer (50 mM Tris/HCl 7.4, 250 mM NaCl, 0,5% Igepal CA630, 5 mM EDTA, 1 mM PMSF, 10 μg/ml leupeptin, 50 mM NaF, 0.1 mM Na3VO4) or Deoxycholate buffer (10 mM phosphate buffer 7.4, […] NaCl, 0.5% Deoxycholate, 1% Igepal, 0.1% SDS, 1 mM PMSF). Protein concentration was determined with BCA Protein Assay Kit (Pierce) for RIPA extracts or Bradford assay (BioRad) for Deoxycholate extracts. Total protein (20-30 μg/lane) were separated by SDS-PAGE, transferred to PVDF membranes (Gellman), and probed with antibodies against Bcl-xL (Transduction); Bax (Santa Cruz); JNK (Santa Cruz); phospho-JNK (Cell Signaling); pRb (Pharmingen); pRb-phospho Ser780 (Cell Signalling); p130 (Santa Cruz); p107 (Santa Cruz); Cdk2 (Santa Cruz); p27^Kip1 (Santa Cruz); p21^Cip1 (Santa Cruz); actin (Sigma); or tubulin (ICN) and developed with ECL system (AmershamPharmacia biotech)
FIG. 8. Expression of protein involved in G0/G1 checkpoint. (A.) HT29 cells were treated for 1, 3, 6 and 24 h with N10-13-10C (40 μM) or N13-13-10C (35 µM), harvested and immunoblotted to assess total pRb levels or Cdk4 specific phosphorylation at pRb-Ser^780 (PpRb). Western blot was first probed with the pRb-Ser^780 phosphorylation specific antibody, was stripped and reprobed with the pan-pRb antibody and tubulin to normalize total protein level. (B.) T98 g cells were synchronized by serum starvation and reinitiated with 10% FCS and DMSO (C), N13-13-10C (100 μM) or Taxol (30 nM) for 15, 17, 24 or 29 h. Western blot of total protein extracts was probed with antibodies to p130, pRb, p107, Cdk2, cycA, p27, p21 and actin. Unphosphorylated, hypophosphorylated as well as hyperphosphorylated pRb are detected (arrows). (C.) HT29 cells treated for 24 and 48 h with N13-13-10C (40 μM) or DMSO as control. Immunoblots were stained with antibodies to Cdk2, cycA, p21, p27 and actin.

[2] = test system: Bax; assay: Western blot of Bax; settings: HT29 cells
Protocol: as §1
(§2) FIG. 6. (A) JNK is activated after N13-13-10C treatment. HT29 cells were treated for 1, 3, 6 and 24 h with N13-13-10C (35 μM), harvested and immunoblotted to assess activation of SAP/JNK MAP kinase. Western blot was first probed with the JNK-phosphor specific antibody, was stripped and reprobed with the pan-JNK antibody and actin to normalize total protein level. […]

[3] = test system: Bcl-xL; assay: Western blot of Bcl-xL phosphorylation; settings: HT29 cells, 3, 6 and 24 h
Protocol: as §1, §2

| Structure (SMILES) | Time of p21Cip1 peak levels ([1]; T98 g, 100 μM) [h] | p27kip1 level ([1]; T98 g, after 15 h of treatment) | Total pRb levels ([1]; synchronized T98 g, 100 μM) | p107 levels ([1]; synchronized T98 g, 100 μM) | p130 phosphorylation ([1]; synchronized T98 g, 100 μM) | p130 total levels ([1]; synchronized T98 g, 100 μM) | pRb hyperphosphorylation ([1]; synchronized T98 g, 100 μM) | Bax level [2] | Bcl-xL phosphorylation (slower migrating band) [3] |
| --- | --- | --- | --- | --- | --- | --- | --- | --- | --- |
| COc1ccc(CCNCC(=O)N(CCc2ccc(OC)cc2)CC(=O)N(CCc2ccccc2)CC(N)=O)cc1 [N13-13-10C] | 17 | appreciable induction | decreased total pRb levels | down regulated | remains also hypophosphorylated | total levels are increased | prevented pRb hyperphosphorylation | – | – |
| COc1ccc(CCN(CC(=O)N(CCc2ccccc2)CC(N)=O)C(=O)CNCCc2ccccc2)cc1 [N10-13-10C] | – | – | – | – | – | – | – | not increased | not observed |
